Assay results as given in patent publication US9848602B2, “Use of prothioconazole to induce host defence responses” (priority 2013, dated 2017).

Legend:
[1] = system: PR1 (pathogenesis-related protein 1) gene (AT2G14610) promoter; assay: Induction of defense gene expression, GFP reporter behind the PR1 promoter; type: in vivo, Arabidopsis thaliana; conditions: 300 ppm, 3 days after spraying, mock (background) set as 1.00
Procedure: Arabidopsis thaliana reporter plants containing the coding sequence of a green fluorescent protein (GFP) linked to the salicylate responsive promoter sequence of the PR1 (pathogenesis-related protein 1) gene (AT2G14610) were grown for five days and then sprayed with compounds. On the 3rd day after spraying, plant fluorescence was assessed with a MacroFluo instrument from Leica Microsystems (Wetzlar, Germany). Fluorescences were quantified with the MetaMorph Microscopy Automation & Image Analysis Software (Molecular Devices, Sunnyvale, Calif., United States).

[2] = system: Arabidopsis thaliana plants (gene expression); assay: Induction of salicylic acid and pathogen response pathways, Affymetrix ATH1 gene expression analysis; type: in vivo; conditions: 500 g/ha spray; for total number of differentially expressed genes: p≦0.05, vs control
Procedure: Arabidopsis thaliana plants were grown on soil in climate controlled growth chambers for 33 days under defined conditions. For treatment Prothioconazole was formulated to result in a final concentration corresponding to 500 g/ha in a spray application. The plants were sprayed in biological replicates. A control group of similar grown plants was equally treated with a blank formulation. Aerial tissues of the treated plants were harvested 3 h and 6 h after treatment, frozen in liquid nitrogen and stored at −80° C. for further processing. Each biological replicate (3 per treatment and time point) consisted of a pool of 10 plants.
Total RNA was prepared from each sample using the RNeasy Midi kit from Qiagen #75142 according to the manufacturer's recommendations. The RNA was then transcribed into cDNA using Superscript II Reverse Transcriptase (Invitrogen). The biotin-labeled cRNA probes for hybridization were generated from the cDNA using the BioArray HighYield® RNA transcript labeling kit (T7) (Enzo Life Sceinces # ENZ42655-40) according the manufacturer's recommendations. The labelled cRNA probes were subsequently hybridized onto Affymetrix GeneChip Arabidopsis ATH1 Genome Arrays (cat.#900385).
The samples were analyzed using the Affymetrix GeneChip System. The resulting data were processed and analyzed using Genedata Refiner Array, Genedata Analyst, RobiNA (Lohse et al. 2012, Nucleic Acids Res) and MapMan (Usadel et al. 2009, Plant Cell Environment) software packages.

[3] = 3 h after treatment, >2-fold change, p≦0.05
[4] = 6 h after treatment, >2-fold change, p≦0.05

SMILES	Relative fluorescence of GFP [1]	number of down-regulated genes [2, 3]	number of up-regulated genes [2, 3]	total number of differentially expressed genes ([2]; 3 h after treatment, >2-fold change)	induction of At1g57630 [Toll-Interleukin-Resistance domain-containing protein] ([2]; 6 h after treatment)	induction of At1g66090 [TIR-NBS class of disease resistance protein] ([2]; 6 h after treatment)	induction of At3g59930 [Defensin-like protein 206] ([2]; 6 h after treatment)	induction of At4g36010 [pathogenesis-related thaumatin family protein] ([2]; 6 h after treatment)	number of downregulated genes [2, 4]	number of up-regulated genes [2, 4]	total number of differentially expressed genes ([2]; 6 h after treatment, >2-fold change)	induction of At1g05680 (UDP-glucose: salicylic acid glucosyltransferase) ([2]; after 3 h)	induction of At2g43820 (UDP-glucose: salicylic acid glucosyltransferase) ([2]; after 3 h)	induction of At1g05680 (UDP-glucose: salicylic acid glucosyltransferase) ([2]; after 6 h)	induction of At2g43820 (UDP-glucose: salicylic acid glucosyltransferase) ([2]; after 6 h)
O=C(O)c1ccccc1O [Salicylic acid, salicylic acid]	1.96														
CC(C)(C)C(O)(CCc1ccc(Cl)cc1)Cn1cncn1 (centres unmarked) [Tebuconazole]	0.73														
OC(Cc1ccccc1Cl)(Cn1[nH]cnc1=S)C1(Cl)CC1 (centres unmarked) [Prothioconazole, 2-[2-(1-chlorocyclopropyl)-3-(2-chlorophenyl)-2-hydroxypropyl]-1,2-dihydro-3H-1,2,4-triazole-3-thione]	2.04	142	238	380	3.4 fold	2.4 fold	3 fold	3.8 fold	148	299	447	3 fold	2.5 fold	5.5 fold	2.5 fold
